The test system of one assay is Enterobacter spp. Kind of assay: MIC by agar dilution (NCCLS), 322 nosocomial Gram negative isolates, Athens 1998. The assay is classed as cell-based.
The test system of a further assay is Staphylococcus aureus. Kind of assay: MIC by agar macrodilution (NCCLS), 373 Gram positive isolates, Athens 1998. The class given is cell-based. The note with it: Methicillin-susceptible Staphylococcus aureus (n = 85).
A further assay has as its system Streptococcus pneumoniae. The assay can be described thus: MIC by E-test (broth microdilution for gemifloxacin), 107 pneumococcal carrier isolates, Athens 1998. The assay is classed as cell-based. The note with it: Streptococcus pneumoniae, E-test; for MIC50: read-out: MIC50; for MIC90: read-out: MIC90. As to the method:
Susceptibility testing was performed by agar dilution or epsilometer method (E-test), as recommended by the NCCLS. […] The susceptibility profiles of the strains were assessed using the Epsilometer method (E-test). The isolates were subdivided into two groups according to their penicillin susceptibility patterns (penicillin-susceptible and penicillin-intermediate.
(In general: In broth dilution the organism is exposed to a series of concentrations in liquid medium.)

Another assay has as its system Aeromonas spp. Kind of assay: MIC by agar dilution (NCCLS M7-A4), 288 enteropathogenic isolates, gemifloxacin and 15 other antimicrobials. The class given is cell-based. To be noted: Aeromonas spp. N= 16. (In agar dilution the substance is mixed into plates at graded concentrations.)
The next assay relates to Hafnia alvei. The description is as above. The class given is cell-based. The note with it: Hafnia alvei N= 32.
For a further assay, the system named is Campylobacter jejuni. The description is as above. The note with it: Campylobacter jejuni N= 91.
The subject of another assay is Yersinia enterocolitica. The assay is described as above. The assay is classed as cell-based. To be noted: Yersinia enterocolitica N= 22.
For the next assay, the system named is Salmonella spp. The description is as above. The assay is classed as cell-based.
A further assay has as its system Shigella spp. The assay is described as above. The class given is cell-based. The note with it: Shigella spp. N= 21. How it is done: [A. hydrophila (12), and A. sobria (4)], and 91 Campylobacter jejuni. […] The strains were stored in skimmed-milk at -80 °C until studied.
The plates were incubated aerobically at 35 °C for 24 h, except for Campylobacter jejuni, where a microaerophilic atmosphere was obtained by using Campy Pack (Becton Dickinson, Cockeysville, MD, USA), and incubation was for 48 h. All organisms were tested with an inoculum of ≅ 10^4 cfu/spot. MICs were defined as the lower antibiotic concentration with no visible growth.

The mark [1] stands for this setting: Penicillin-intermediate S. pneumoniae (n = 24).
[2] abbreviates: Penicillin-susceptible S. pneumoniae (n = 107).

≈ marks a conversion by molar mass, not a printed value. Read-outs that look alike come from different tables or passages of the source. A value given as a limit tells only on which side of the number the result lay.

The term MIC50 denotes the lowest concentration that inhibits either 50% of growth or 50% of the strains tested, depending on the study. As usually defined, the MIC90 is an inhibitory concentration at the 90% level, which refers to growth in some studies and to a panel of isolates in others. In the case of `CC(C)(O/N=C(\C(=O)N[C@@H]1C(=O)N2C(C(=O)[O-])=C(C[n+]3ccccc3)CS[C@H]12)c1csc(N)n1)C(=O)O` [Cetfazidime], in the assay on Enterobacter spp. (Enterobacter), the MIC50 stood at 1 µg/mL and the MIC90 was > 64 µg/mL. For the same compound, in the assay with Enterobacter spp. ({}), the “MIC distribution (µg/ml) 0.06” value is 1, the “MIC distribution (µg/ml) 0.25” value amounted to 16, the “MIC distribution (µg/ml) 0.5” value is listed as 3 and the “MIC distribution (µg/ml) 1” value was 2. For the same compound, in the assay with Enterobacter spp. ({}), the “MIC distribution (µg/ml) 2” value is reported as 1, the “MIC distribution (µg/ml) 4” value stood at 0, the “MIC distribution (µg/ml) 8” value is given as 2 and the “MIC distribution (µg/ml) 16” value was found to be 6. In the assay on Enterobacter spp. ({}), the “MIC distribution (μg/ml) 32” value amounted to 3 and the “MIC distribution (μg/ml) 64” value turned out to be 2.
As for `CC[C@H]1OC(=O)[C@H](C)[C@@H](O[C@H]2C[C@@](C)(OC)[C@@H](O)[C@H](C)O2)[C@H](C)[C@@H](O[C@@H]2O[C@H](C)C[C@H](N(C)C)[C@H]2O)[C@](C)(OC)C[C@@H](C)C(=O)[C@H](C)[C@@H](O)[C@]1(C)O` [Clarithromycin], the MIC50 in the assay with Staphylococcus aureus (read-out: MIC50) was found to be 0.25 µg/mL (≈ 0.334 µM); in the assay with Streptococcus pneumoniae (setting [1]) it was 0.094 µg/mL (≈ 0.126 µM); in the assay with Streptococcus pneumoniae (setting [2]), 0.094 µg/mL (≈ 0.126 µM). Further, the MIC90 is 1 µg/mL (≈ 1.34 µM) in the assay with Staphylococcus aureus (read-out: MIC90), ≥ 256 µg/mL in the assay on Streptococcus pneumoniae (setting [1]) and 0.38 µg/mL (≈ 0.508 µM) with Streptococcus pneumoniae (setting [2]).
Turning to gentamicin, the “% Susceptible” value in the assay on Aeromonas spp. is on record as 100%; in the assay with Hafnia alvei, 100%; in the assay with Campylobacter jejuni, 100%; in the assay on Yersinia enterocolitica, 100%; in the assay with Salmonella spp. (Salmonella spp. N= 106), 96%; in the assay with Shigella spp., 100%. Further, the “MIC (mg/L) 50%” value is on record as 0.5 mg/L against Aeromonas spp.; 0.25 mg/L with Hafnia alvei; 0.25 mg/L in the assay on Campylobacter jejuni; 1 mg/L with Yersinia enterocolitica; 0.25 mg/L in the assay with Salmonella spp. (Salmonella spp. N= 106); 1 mg/L in the assay on Shigella spp.. Besides, the “MIC (mg/L) 90%” value in the assay with Aeromonas spp. came out at 1 mg/L; in the assay with Hafnia alvei, 0.5 mg/L; in the assay with Campylobacter jejuni, 0.5 mg/L; in the assay on Yersinia enterocolitica, 1 mg/L; with Salmonella spp. (Salmonella spp. N= 106), 0.5 mg/L; against Shigella spp., 1 mg/L. The “MIC (mg/L) Range” value with Aeromonas spp. lay in the range of 0.25 to 1 mg/L; with Hafnia alvei, 0.25 to 0.5 mg/L; with Campylobacter jejuni, 0.12 to 1 mg/L; in the assay with Yersinia enterocolitica it was 0.5 to 1 mg/L; against Salmonella spp. (Salmonella spp. N= 106) it was 0.12 to 128 mg/L; against Shigella spp. it was 0.5 to 1 mg/L. For the same compound, in the assay with Salmonella spp. (Salmonella spp.), the isolates being resistant was 4%.

The values are drawn from patent EP1561465A2, “Methods of use of fluoroquinolone compounds against bacteria” (LG Life Sciences, Ltd., priority 1999, dated 2001).
